Results on ten molecules are retold here after ChEMBL document CHEMBL1129083, “The synthesis of 5-azido-UTP and UDP-pyridoxal and their effect on the carbamoyl-phosphate synthetase (CPS II) in the mammalian multienzyme polypeptide CAD” (Bioorg Med Chem Lett, 1996).

Assay [1] addresses Multifunctional protein CAD (Homo sapiens) (UniProt P27708). Put plainly: Compound was evaluated for its effect on the activity of mammalian Carbamoyl-phosphate synthetase in the multienzyme polypeptide CAD at a concentration of 0.4mM.
Assay [2] has the same target. Put plainly: Compound was evaluated for its effect on the activity of mammalian Carbamoyl-phosphate synthetase in the multienzyme polypeptide CAD at a concentration of 4mM.
The target is the same in assay [3]. Description: Compound was evaluated for its effect on the activity of mammalian Carbamoyl-phosphate synthetase in the multienzyme polypeptide CAD at a concentration of 1.2mM.
Assay [4] shares this target. Description: Compound was evaluated for its effect on the activity of mammalian Carbamoyl-phosphate synthetase in the multienzyme polypeptide CAD at a concentration of 1.6mM.
The target is the same in assay [5]. Description: Compound was evaluated for its effect on the activity of mammalian Carbamoyl-phosphate synthetase in the multienzyme polypeptide CAD at a concentration of 1.2 mM.

Chain of Multifunctional protein CAD (Homo sapiens) (P27708 whole entry): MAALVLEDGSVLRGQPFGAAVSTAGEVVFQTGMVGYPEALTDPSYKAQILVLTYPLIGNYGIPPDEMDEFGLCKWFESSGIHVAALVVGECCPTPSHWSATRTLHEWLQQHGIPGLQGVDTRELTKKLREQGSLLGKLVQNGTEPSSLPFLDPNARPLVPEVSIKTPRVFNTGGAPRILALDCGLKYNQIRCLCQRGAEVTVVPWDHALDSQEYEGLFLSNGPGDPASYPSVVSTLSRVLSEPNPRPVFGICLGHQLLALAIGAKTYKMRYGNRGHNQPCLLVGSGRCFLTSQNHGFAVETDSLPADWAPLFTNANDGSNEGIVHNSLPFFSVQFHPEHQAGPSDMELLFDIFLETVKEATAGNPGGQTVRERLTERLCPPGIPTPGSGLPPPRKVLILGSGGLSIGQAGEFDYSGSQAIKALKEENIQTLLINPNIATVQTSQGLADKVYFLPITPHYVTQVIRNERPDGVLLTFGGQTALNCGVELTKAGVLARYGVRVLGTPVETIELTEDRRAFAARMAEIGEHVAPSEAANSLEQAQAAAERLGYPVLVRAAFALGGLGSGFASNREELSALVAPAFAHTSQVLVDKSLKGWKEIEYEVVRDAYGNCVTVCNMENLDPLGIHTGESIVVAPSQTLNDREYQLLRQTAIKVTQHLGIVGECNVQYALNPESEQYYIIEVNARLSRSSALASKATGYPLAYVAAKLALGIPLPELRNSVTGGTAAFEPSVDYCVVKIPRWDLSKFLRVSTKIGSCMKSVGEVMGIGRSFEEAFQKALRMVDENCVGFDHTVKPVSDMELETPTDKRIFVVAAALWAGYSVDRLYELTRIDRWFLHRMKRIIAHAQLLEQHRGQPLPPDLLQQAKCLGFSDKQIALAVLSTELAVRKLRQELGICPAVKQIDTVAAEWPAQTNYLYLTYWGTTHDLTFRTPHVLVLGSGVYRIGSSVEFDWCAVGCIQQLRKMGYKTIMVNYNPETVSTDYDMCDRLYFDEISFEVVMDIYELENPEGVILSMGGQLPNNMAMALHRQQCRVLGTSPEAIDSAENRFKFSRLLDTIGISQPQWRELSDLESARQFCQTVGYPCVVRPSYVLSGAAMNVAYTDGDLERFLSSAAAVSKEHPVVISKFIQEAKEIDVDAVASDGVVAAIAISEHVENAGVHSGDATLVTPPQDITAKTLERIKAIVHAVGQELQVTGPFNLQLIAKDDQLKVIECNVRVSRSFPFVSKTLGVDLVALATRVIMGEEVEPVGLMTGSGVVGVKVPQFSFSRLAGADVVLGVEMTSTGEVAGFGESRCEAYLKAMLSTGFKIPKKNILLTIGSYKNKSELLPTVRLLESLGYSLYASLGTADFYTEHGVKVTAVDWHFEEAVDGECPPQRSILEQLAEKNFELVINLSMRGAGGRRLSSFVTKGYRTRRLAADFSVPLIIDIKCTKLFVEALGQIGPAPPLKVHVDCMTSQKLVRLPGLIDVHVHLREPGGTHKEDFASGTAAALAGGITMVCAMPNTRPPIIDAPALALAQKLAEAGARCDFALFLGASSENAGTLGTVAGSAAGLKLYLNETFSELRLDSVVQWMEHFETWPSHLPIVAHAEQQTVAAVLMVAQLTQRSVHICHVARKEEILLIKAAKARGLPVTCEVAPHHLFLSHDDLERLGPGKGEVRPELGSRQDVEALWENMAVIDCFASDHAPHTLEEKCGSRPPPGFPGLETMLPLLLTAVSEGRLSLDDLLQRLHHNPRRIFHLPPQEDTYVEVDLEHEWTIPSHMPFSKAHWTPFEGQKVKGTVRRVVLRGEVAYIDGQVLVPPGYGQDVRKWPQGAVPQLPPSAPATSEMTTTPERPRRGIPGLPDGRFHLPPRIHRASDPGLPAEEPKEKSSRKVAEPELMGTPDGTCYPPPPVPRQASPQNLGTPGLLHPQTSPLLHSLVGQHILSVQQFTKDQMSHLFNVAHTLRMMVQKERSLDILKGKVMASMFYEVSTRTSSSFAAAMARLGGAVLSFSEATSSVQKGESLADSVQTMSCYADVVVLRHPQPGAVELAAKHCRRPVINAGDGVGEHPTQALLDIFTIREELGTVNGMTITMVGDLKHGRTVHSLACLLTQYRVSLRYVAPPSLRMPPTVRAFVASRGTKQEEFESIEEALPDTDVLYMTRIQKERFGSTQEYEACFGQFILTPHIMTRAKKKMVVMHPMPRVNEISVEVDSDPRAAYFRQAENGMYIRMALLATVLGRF

`Cc1ncc(COP(=O)(O)OP(=O)(O)OC[C@H]2OC(n3ccc(=O)[nH]c3=O)[C@H](O)[C@@H]2O)c(C=O)c1O` (stereo not given in full): the Activity in assay [1] is 120%.

In assay [2], `Nc1ncnc2c1ncn2[C@@H]1O[C@H](COP(=O)(O)OP(=O)(O)OP(=O)(O)O)[C@@H](O)[C@H]1O` displayed an Activity of 100%.

`O=c1ccn([C@@H]2O[C@H](COP(=O)(O)OP(=O)(O)OP(=O)(O)O)[C@@H](O)[C@H]2O)c(=O)[nH]1`: the Activity in assay [3] is 18%.

In assay [3], `Cc1ncc(CO)c(C=O)c1O` had an Activity of 73%.

With `Cc1ncc(COP(=O)(O)O)c(C=O)c1O`, the Activity in assay [1] is 170%.

Consider `O=c1ccn([C@@H]2O[C@H](CO)C(O)C2O)c(=O)[nH]1` (single isomer, unassigned), for which, in assay [4], the Activity came to 100%.

Turning to `O=P(O)(O)OC[C@H]1OC(OP(=O)(O)OP(=O)(O)O)[C@H](O)[C@@H]1O` (stereo not given in full), in assay [1], the Activity came to 320%.

Molecule `O=c1ccn([C@@H]2O[C@H](COP(=O)(O)OP(=O)(O)O)[C@@H](O)[C@H]2O)c(=O)[nH]1` came in with an Activity in assay [3] of 54%.

In assay [4], `O=P(O)(O)OC[C@H]1O[C@H](O)C(O)C1O` (single isomer, unassigned) yielded an Activity of 100%.

With `[N-]=[N+]=Nc1cn([C@@H]2O[C@H](COP(=O)(O)OP(=O)(O)OP(=O)(O)O)[C@@H](O)[C@H]2O)c(=O)[nH]c1=O`, the Activity in assay [5] came to 48%.
